# Source: US20230097090A1, “IMPROVED LIPID NANOPARTICLES FOR DELIVERY OF NUCLEIC ACIDS” (ACUITAS THERAPEUTICS, INC., priority 2019, published 2023)
# Assay: pKa of representative cationic lipids
# Format: physicochemical
# [1] = Table 2, lipids of Formula (II)
# [2] = first Table 12, representative lipid compounds XIII
SMILES,pKa [1],pKa [2]
CCCCCCCCC(=O)N(CCCN(C)C)C(CCCCCCCCCOC(=O)C(CCCC)CCCCCC)CCCCCCCCCOC(=O)C(CCCC)CCCCCC (stereo not shown) [II-17],6.27,
CCCCC(CCCC)OC(=O)CCCCCCCCC(CCCCCCCCC(=O)OC(CCCC)CCCC)N(CCCN(C)C)C(=O)CCCCCCCC(=O)OC(CCCC)CCCC [II-24],6.14,
CCCCCCCCCCN(C(=O)CCCCN1CCCC1)C(CCCCCCCCC(=O)OCC(CCCC)CCCCCC)CCCCCCCCC(=O)OCC(CCCC)CCCCCC (stereo not shown) [XIII-9],,6.83
CCCCCCCCCCN(C(=O)CCCN(C)C)C(CCCCCC(=O)OCC(CCCCCC)CCCCCCCC)CCCCCC(=O)OCC(CCCCCC)CCCCCCCC (stereo not shown) [XIII-16],,6.77
CCCCCCC(CCCC)COC(=O)CCCCCCCCC(CCCCCCCCC(=O)OCC(CCCC)CCCCCC)N(CC(CC)CCCC)C(=O)CCCN(C)C (stereo not shown) [XIII-20],,6.84
CCCCCCCCCN(C(=O)CCN(C)C)C(CCCCCCCCC(=O)OCC(CCCC)CCCCCC)CCCCCCCCC(=O)OCC(CCCC)CCCCCC (stereo not shown) [XIII-25],,6.2
CCCCCCCCCCN(C(=O)CCCN1CCCC1)C(CCCCCC(=O)OCC(CCCCCC)CCCCCCCC)CCCCCC(=O)OCC(CCCCCC)CCCCCCCC (stereo not shown) [XIII-29],,6.81
CCCCCCCCCN(C(=O)CCCN(C)C)C(CCCCCCCCCOC(=O)C(CCCC)CCCCCC)CCCCCCCCCOC(=O)C(CCCC)CCCCCC (stereo not shown) [XIII-32],,6.41

# Continued, values first:
pKa [1],pKa [2],SMILES
,6.74,CCCCCCCCCCN(C(=O)CCCCN(C)C)C(CCCCCCCCC(=O)OCC(CCCC)CCCCCC)CCCCCCCCC(=O)OCC(CCCC)CCCCCC (stereo not shown) [XIII-7]
,6.68,CCCCCCCCCCN(C(=O)CCCCN(CC)CC)C(CCCCCCCCC(=O)OCC(CCCC)CCCCCC)CCCCCCCCC(=O)OCC(CCCC)CCCCCC (stereo not shown) [XIII-8]
,6.47,CCCCCCCCCCN(C(=O)CCCN(C)C)C(CCCCCCCCC(=O)OCC(CCCC)CCCCCC)CCCCCCCCC(=O)OCC(CCCC)CCCCCC (stereo not shown) [XIII-18]
,5.05,CCCCCCCCCCN(C(=O)CCCCN(CCCC)CCCC)C(CCCCCCCCC(=O)OCC(CCCC)CCCCCC)CCCCCCCCC(=O)OCC(CCCC)CCCCCC (stereo not shown) [XIII-31]
,6.19,CCCCCCCCCCN(C(=O)CCN1CCCC1)C(CCCCCCCCC(=O)OCC(CCCC)CCCCCC)CCCCCCCCC(=O)OCC(CCCC)CCCCCC (stereo not shown) [XIII-33]
